The values that follow come from patent publication US8809314B1, “Cephalosporin compound” (Cubist Pharmaceuticals, Inc., priority 2012, dated 2014).

One test concerns Pa44 (WT Pa). Briefly: MIC, broth microdilution (Example 3), Table 1. In kind it is cell-based. The conditions noted are these: Pseudomonas aeruginosa, CAMHB. The procedure:
(§1) To prepare for MIC testing, individual colonies were isolated by streaking frozen glycerol material containing Staphylococcus or Pseudomonas spp. onto rich, non-selective, tryptic soy agar containing 5% sheep's blood (TSAB), and incubated at 37° C. for 18-24 hrs.
(§2) On the day of testing, primary cultures were started by scraping off 5-10 colonies from the TSAB plates. The material was suspended in ˜5 mL of cation adjusted Mueller Hinton Broth (CAMHB) in 14 mL culture tubes and incubated at 37° C. with aeration (200 rpm) for ˜2 hrs until the OD600 was ≧0.1.
(§3) Inoculum cultures were prepared by standardizing the primary cultures to OD600=0.1 and then adding 20 μL of the adjusted primary culture per 1 mL CAMHB for Pseudomonas and CAMHB plus 4% NaCl for MRSA so that the final inoculum density was ˜10^5 colony forming units per milliliter. Diluted inoculum cultures were used to inoculate 50 μL per well in 96 well broth microdilution assay plates. 50 μL of CAMHB that contained compound concentrations ranging from 64-0.06 μg/mL in two-fold dilutions was also added to the broth microdilution assay plates for a final volume 100 μL per well, therefore final culture OD600 was approximately 0.001 and the final NaCl concentration for the MRSA strain was 2%.
(§4) Plates were incubated for 18-20 hours at 37° C. with aeration (200 rpm). Following incubation, growth was confirmed visually placing plates over a viewing apparatus (stand with a mirror underneath) and then OD600 was measured using a SpectraMax 340PC384 plate reader (Molecular Devices, Sunnyvale, Calif.). Growth was defined as turbidity that could be detected with the naked eye or achieving minimum OD600 of 0.1. MIC values were defined as the lowest concentration producing no visible turbidity.

Another test relates to Sa399 (MRSA). Briefly: MIC, broth microdilution (Example 3), Table 1. Type of test: cell-based. The following applies: Staphylococcus aureus, CAMHB, final 2% NaCl. The procedure:
as §1, §2, §3, §4

The subject of the next test is Pa2086 (mucoid strain). Briefly: MIC, broth microdilution (Example 5), Table 3. Type of test: cell-based. The conditions noted are these: Pseudomonas aeruginosa. The procedure: (§5) II. […] MIC90 values were defined as the concentration required to inhibit growth of 90% of the strains tested. • C. SAR was performed using the following isolates: Sa399 (ATCC43300, MRSA), Sa1721 (NARSA NRS384, MRSA USA 300), Pa44 (ATCC27853), and 4 clinical isolates (Pa2241, Pa2086 (mucoid strain), Pa2694 and Pa2698). • D. The in vitro antibacterial activity of the compound of formula (I) was further evaluated in an expanded MRSA and Pa MIC panel (see Table 4 and FIG. 6).

The subject of another test is Pa2698. Briefly: MIC, broth microdilution (Example 5), Table 3. The conditions noted are these: Pseudomonas aeruginosa. Type of test: cell-based. The protocol: as §5
For test [1], the system named is Sa1721 (NARSA NRS384, MRSA USA 300). Briefly: MIC, broth microdilution (Example 5), Table 3. In kind it is cell-based. The conditions noted are these: Staphylococcus aureus. The procedure:
as §5

A further test relates to Pa2241. Briefly: MIC, broth microdilution (Example 5), Table 3. Type of test: cell-based. The following applies: Pseudomonas aeruginosa. The protocol: as §5
The subject of another test is Pa44 (ATCC27853). Briefly: MIC, broth microdilution (Example 5), Table 3. In kind it is cell-based. The following applies: Pseudomonas aeruginosa. The protocol:
as §5

The subject of the next test is Pa2694. Briefly: MIC, broth microdilution (Example 5), Table 3. In kind it is cell-based. The following applies: Pseudomonas aeruginosa. The procedure:
as §5

The next test relates to Sa399 (ATCC43300, MRSA). Briefly: MIC, broth microdilution (Example 5), Table 3. In kind it is cell-based. The following applies: Staphylococcus aureus. The procedure: as §5
The test system of a further test is MRSA (n = 21). Briefly: MIC90, expanded MIC panel (Table 4). In kind it is cell-based. The following applies: Staphylococcus aureus; 21 MRSA strains; read-out: MIC90 MRSA (n = 21). The procedure: as §5
The next test concerns MRSA #712. Put plainly: MIC in MHB by standard CLSI microdilution (Example 4). Type of test: cell-based. The conditions noted are these: Staphylococcus aureus; MRSA #712; read-out: MIC. The text has this: (§6) II. Methods • A. Animals: Six week-old, specific pathogen free, female CD-1 mice purchased from Charles River Laboratories (Wilmington, Mass.) were used for all studies after acclimation in Cubist animal facility. All animal procedures were approved by the Cubist Institutional Animal Care and Use Committee. • B. Bacteria and In Vitro Susceptibility Testing: MRSA #712, Pseudomonas aeruginosa #2245 and #2545, and Klebsiella pneumoniae #573 are clinical isolates; Pseudomonas aeruginosa #44 is an ATCC strain (ATCC#27853). MIC was determined in MHB by standard CLSI microdilution. Comparator Antibiotics Used in Animal Studies: Vancomycin hydrochloride USP was purchased from Hospira (Lake Forest, Ill.); ceftazidime hydrate from Sigma; Primaxin (imipenem and cilastatin) from Merck; ceftaroline was synthesized at a CRO. • D. Mouse Septicemia: Mice received lethal inocula of bacteria in 6% hog gastric mucin intraperitoneally (IP), followed by two treatment doses of antibiotics via subcutaneous (SC) administration at 1 and 6 hrs post-inoculation. The survival of animals was recorded daily for 7 days. The antibiotic dose calculated to protect 50% of the mice (PD50) was derived based on probit analysis of percentage survival. • E. Mouse Thigh and Lung Infections: Mice were rendered neutropenic by two IP injections of cyclophosphamide 4 days (150 mg/kg) and 1 day (100 mg/kg) before bacterial inoculation. Thigh or lung infection was induced by an intramuscular injection of 0.2 mL or intranasal inoculation of 0.1 mL inoculum preparation from an overnight bacterial culture into left thigh or nares. Tissues from one group of mice receiving no treatment (No Rx) were harvested at 1 hr for determination of baseline of bacterial burden. The remaining mice received two treatment doses of vehicles or antibiotics given SC at 1 and 6 hrs post-inoculation. Tissues from the treated mice were harvested at ˜24 hrs post-inoculation. Tissue bacterial burdens were quantified by serial dilution and spiral plating of homogenates.

Test [2] concerns Klebsiella pneumoniae #573. Briefly: Mouse septicemia (systemic infection), PD50. The conditions noted are these: Kpn #573; CD-1 mice, IP inoculum, 2 SC doses at 1 and 6 hrs, 7 day survival. Type of test: in vivo. The protocol:
(§7) In vivo efficacy of (I) was evaluated against strains of MRSA, and ceftazidime-resistant Pa and Klebsiella pneumonia (Kpn) in mouse septicemia, thigh and lung infections. Septicemia: CD-1 mice received lethal bacterial inocula IP, followed by 2 doses of antibiotics SC at 1 and 6 hrs post-inoculation. Dose calculated to protect 50% of the mice (PD50) was derived based on probit analysis of percentage survival. Thigh and lung infections: Thighs or lungs of neutropenic mice were inoculated with MRSA or Pa. Two treatment doses were given SC at 1 and 6 hrs post-inoculation. Tissues were harvested at ˜24 hrs post-inoculation and bacterial burdens quantified.
(§8) II. Methods • A. Animals: Six week-old, specific pathogen free, female CD-1 mice purchased from Charles River Laboratories (Wilmington, Mass.) were used for all studies after acclimation in Cubist animal facility. […] MIC was determined in MHB by standard CLSI microdilution. […] The survival of animals was recorded daily for 7 days. The antibiotic dose calculated to protect 50% of the mice (PD50) was derived based on probit analysis of percentage survival. • E. Mouse Thigh and Lung Infections: Mice were rendered neutropenic by two IP injections of cyclophosphamide 4 days (150 mg/kg) and 1 day (100 mg/kg) before bacterial inoculation. […] Tissue bacterial burdens were quantified by serial dilution and spiral plating of homogenates.

For test [3], the system named is Pseudomonas aeruginosa (n = 100). Briefly: MIC90, expanded MIC panel (Table 4). In kind it is cell-based. The following applies: 100 Pa strains. The procedure:
as §5

The next test concerns Pa #2545. Briefly: MIC in MHB by standard CLSI microdilution (Example 4). The conditions noted are these: Pseudomonas aeruginosa. Type of test: cell-based.
Source text: as §6

The next test relates to Pa #44 (ATCC27853). The description is as above. In kind it is cell-based. The conditions noted are these: Pseudomonas aeruginosa.
Source text: as §6

The subject of the next test is Kpn #573. The description is as above. The conditions noted are these: Klebsiella pneumoniae. Type of test: cell-based.
Source text: as §6

In test [4] the test system is Pseudomonas aeruginosa #44 (ATCC#27853). Briefly: Mouse septicemia (systemic infection), PD50. In kind it is in vivo. The following applies: Pa #44 (ATCC27853), CD-1 mice, IP inoculum, 2 SC doses at 1 and 6 hrs, 7 day survival. The protocol: as §7
II. Methods • A. Animals: Six week-old, specific pathogen free, female CD-1 mice purchased from Charles River Laboratories (Wilmington, Mass.) were used for all studies after acclimation in Cubist animal facility. All animal procedures were approved by the Cubist Institutional Animal Care and Use Committee. • B. Bacteria and In Vitro Susceptibility Testing: MRSA #712, Pseudomonas aeruginosa #2245 and #2545, and Klebsiella pneumoniae #573 are clinical isolates; Pseudomonas aeruginosa #44 is an ATCC strain (ATCC#27853). MIC was determined in MHB by standard CLSI microdilution. […] The survival of animals was recorded daily for 7 days. The antibiotic dose calculated to protect 50% of the mice (PD50) was derived based on probit analysis of percentage survival. • E. Mouse Thigh and Lung Infections: Mice were rendered neutropenic by two IP injections of cyclophosphamide 4 days (150 mg/kg) and 1 day (100 mg/kg) before bacterial inoculation. […] Tissue bacterial burdens were quantified by serial dilution and spiral plating of homogenates.
III. […] The dose that protected 50% of the mice (PD50) was calculated by probit analysis based on percentage of mice surviving for 7 days post-inoculation. • C. […]

For test [5], the system named is ceftazidime-susceptible Pseudomonas aeruginosa #44 (ATCC#27853). Briefly: Lung infection in neutropenic mice. Type of test: in vivo. The following applies: Pa #44 lung infection. The protocol:
as §7, §6

Test [6] concerns ceftazidime-susceptible Pseudomonas aeruginosa #2245. Briefly: Lung infection in neutropenic mice. Type of test: in vivo. The following applies: Pa #2245 lung infection, 3-log CFU reduction vs vehicle at 24 h. The procedure:
as §7, §6

The test system of test [7] is ceftazidime-resistant Pseudomonas aeruginosa #2545. Briefly: Lung infection in neutropenic mice. Type of test: in vivo. The following applies: Pa #2545 lung infection. The procedure: as §7, §6
The test system is the same in test [8]. Type of test: in vivo. The conditions noted are these: Pa #2545; CD-1 mice, IP inoculum, 2 SC doses at 1 and 6 hrs, 7 day survival. The procedure: as §7, §8

≈ marks a conversion by molar mass, not a printed value. Where only a bound is given, the exact number is not on record here.

In the case of `CO/N=C(\C(=O)N[C@@H]1C(=O)N2C(C(=O)[O-])=C(C[N+]3(C)CCCC3)CS[C@H]12)c1csc(N)n1` [Cefepime], the minimal inhibitory concentration (MIC) is not above 4 µg/mL in the test on Pa44 (WT Pa) and more than 16 µg/mL with Sa399 (MRSA).
In the same order, the values of `CO/N=C(\C(=O)N[C@@H]1C(=O)N2C(C(=O)[O-])=C(C[n+]3cccc4c3CCC4)CS[C@H]12)c1csc(N)n1` [Cefpirome] are not above 4 µg/mL and 8 to 16 µg/mL (≈ 15.5 to 31.1 µM).
Consider `CCO/N=C(\C(=O)N[C@@H]1C(=O)N2C(C(=O)[O-])=C(Sc3nc(-c4cc[n+](C)cc4)cs3)CS[C@H]12)c1nsc(N)n1` [Ceftaroline, ceftaroline], for which the minimal inhibitory concentration (MIC) in the test with Pa2086 (mucoid strain) is 16 µg/mL (≈ 26.5 µM); against Pa2698 it was more than 64 µg/mL; in test [1], 2 µg/mL (≈ 3.31 µM); with Pa2241, 16 µg/mL (≈ 26.5 µM); against Pa44 (ATCC27853), 8 µg/mL (≈ 13.2 µM); in the test on Pa2694 it was more than 64 µg/mL. The MIC with Sa399 (ATCC43300, MRSA) turned out to be 0.5 µg/mL (≈ 0.827 µM); in the test on MRSA #712, 1 µg/mL (≈ 1.65 µM). For the same compound, the MIC90 in the test with MRSA (n = 21) was 1 µg/mL (≈ 1.65 µM).
In the case of `CC(C)(O/N=C(\C(=O)N[C@@H]1C(=O)N2C(C(=O)[O-])=C(C[n+]3ccccc3)CS[C@H]12)c1csc(N)n1)C(=O)O` [Ceftazidime], the minimum inhibitory concentration (MIC) in the test on Pa44 (WT Pa) is not above 4 µg/mL; with Sa399 (MRSA) it was more than 16 µg/mL; against Pa2086 (mucoid strain), 2 µg/mL (≈ 3.66 µM); in the test on Pa2698, 8 µg/mL (≈ 14.6 µM); in [1], more than 64 µg/mL; in the test with Pa2241 it was 2 µg/mL (≈ 3.66 µM). Further, the minimal inhibitory concentration (MIC) against Pa44 (ATCC27853) is 2 µg/mL (≈ 3.66 µM); in the test on Pa2694, 8 µg/mL (≈ 14.6 µM); against Sa399 (ATCC43300, MRSA), 64 µg/mL (≈ 117 µM); in the test on Pa #2545, 32 to 64 µg/mL (≈ 58.5 to 117 µM); in the test with Pa #44 (ATCC27853) it was 1 µg/mL (≈ 1.83 µM); with Kpn #573 it was 256 µg/mL (≈ 468 µM). In addition, the “Septicemia PD50 (± SE)” value in test [2] is 50.3 ± 8.4 mg/kg; in [4], 33.9 ± 7.4 mg/kg; in test [4] (listed as ceftazidime), 33.9 ± 7.4 mg/kg; in [8] it was more than 140.5 mg/kg. The compound also gave an MIC90 in test [3] of 8 µg/mL (≈ 14.6 µM). Also, the “Lung (L) ED−2log” value in test [5] (2 SC doses at 1 and 6 hrs, 24 h, vs vehicle) is 25.6 (L) mg/kg; in [7] (neutropenic mice, 2 SC doses at 1 and 6 hrs, 24 h, vs vehicle) it was >144.5 (L) mg/kg. The “ED−3 log” value in test [5] (3-log CFU reduction vs vehicle at 24 h) is on record as 50.4 mg/kg; in test [6] it was 27.2 mg/kg. Besides, the “impact on the bacterial burden in the lung” value in [7] (up to 144.5 mg/kg) is reported as “minimal impact”.
Turning to `CO/N=C(\C(=O)N[C@@H]1C(=O)N2C(C(=O)[O-])=C(C[n+]3ccc(CN)cc3)CS[C@H]12)c1csc(N)n1` [Compound 1-1], the MIC was not above 4 µg/mL with Pa44 (WT Pa) and more than 16 µg/mL against Sa399 (MRSA).
